From paper PMC11249646, “Small-Molecule Disruptors of the Interaction between Calcium- and Integrin-Binding Protein 1 and Integrin αIIbβ3 as Novel Antiplatelet Agents” (ACS Pharmacology & Translational Science, 2024)
Like-named read-outs stand apart in the source and are kept apart here.

Experiments:
[1] = target: T1, CIB1 and αIIb interaction (CIB1-GST : F-αIIb peptide) (Homo sapiens, UniProt Q99828); experiment: FP assay, 1536-well qHTS format (primary and confirmatory screen); assay type: binding; details: for Curve Class (confirmatory screen) / CONFIRMATORY SCREEN Curve Class: qHTS curve class
T1 construct: made in house; host or cells: BL-21 plus RIL cells (E. coli)
T1 sequence (Q99828 1-191): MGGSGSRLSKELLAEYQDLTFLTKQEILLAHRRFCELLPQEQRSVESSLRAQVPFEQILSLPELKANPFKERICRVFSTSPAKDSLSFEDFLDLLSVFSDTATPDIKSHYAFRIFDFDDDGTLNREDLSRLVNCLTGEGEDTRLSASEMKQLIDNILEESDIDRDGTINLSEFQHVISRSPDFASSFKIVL

[2] = target: T2, GST-CIB1 : F-scrambled peptide (Homo sapiens, UniProt Q99828); experiment: FP scrambled-peptide counter screen, 1536-well format; assay type: binding; details: for Curve Class (counterscreen) / COUNTERSCREEN Curve Class: qHTS curve class; for IC50: read-out: IC50 [μM] (counterscreen)
T2 construct: made in house; host or cells: BL-21 plus RIL cells (E. coli)
T2 sequence (Q99828 1-191): T1 sequence (Q99828 1-191)

[3] = confirmatory screen, negative sign = inhibitory curve
[4] = confirmatory screen, read-out: IC50 [μM] (confirmatory screen)
[5] = qHTS FP screen hits, Table S2, negative = inhibition
[6] = qHTS FP screen hits, Table S2, one class per curve where COUNT > 1, negative sign = inhibitory curve
[7] = qHTS FP screen hits, Table S2, read-out: IC50
[8] = counterscreen, negative sign = inhibitory curve
[9] = Table S3, confirmatory screen, a negative sign marks inhibitory curves
[10] = Table S3, confirmatory screen, negative = inhibition
[11] = qHTS primary screen hits, Table S2, negative = inhibition
[12] = qHTS primary screen hits, Table S2, negative sign = inhibitory curve, several classes where COUNT > 1
[13] = qHTS primary screen hits, Table S2, read-out: IC50
[14] = Table S3, counterscreen, YES/NO call
[15] = Table S3, counterscreen, a negative sign marks inhibitory curves
[16] = Table S3, counterscreen, negative = inhibition
[17] = qHTS primary screen hits, Table S2, negative sign = inhibitory curve
[18] = Table S3, confirmatory screen, YES/NO call
[19] = Table S3, confirmatory screen, read-out: IC50 [μM] (confirmatory screen)

SMILES	Efficacy (%) (confirmatory screen) ([1]; confirmatory screen)	Confirm? (confirmatory screen) ([1]; confirmatory screen, YES/NO)	Curve Class (confirmatory screen) [1, 3]	IC50 [1, 4] [µM]	Efficacy (%) (counterscreen) ([2]; counterscreen)	Curve Class (counterscreen) [2, 8]	Efficacy (%) [1, 11] [%]	Curve Class [1, 12]	IC50 [1, 13] [µM]	CONFIRMATORY SCREEN Efficacy (%) ([1]; confirmatory screen)	CONFIRMATORY SCREEN Curve Class ([1]; confirmatory screen)	COUNTERSCREEN Efficacy (%) ([2]; counterscreen)	COUNTERSCREEN Curve Class ([2]; counterscreen)	further results
C=CCNc1oc(-c2ccc(Cl)cc2)nc1C#N.O=C(O)C(F)(F)F [NCGC00183412-01]	-72	YES	-2.2	31.6	-30	-1.2								Efficacy (%) [1, 5]: -54%; Curve Class [1, 6]: -2.2; IC50 [1, 7]: 50.1 µM; IC50 ([2]; counterscreen): 12.6 µM
NC(=O)C1CCN(c2nc(-c3ccccc3N)cs2)CC1.O=C(O)C(F)(F)F [NCGC00183555-01]							-77	-2.2	39.8					Curve Class (confirmatory screen) [1, 9]: 4; Efficacy (%) (confirmatory screen) [1, 10]: -21%; Confirm? (counterscreen) [2, 14]: YES; Curve Class (counterscreen) [2, 15]: -1.4; Efficacy (%) (counterscreen) [2, 16]: -31%; IC50 ([2]; Table S3, counterscreen): 28.2 µM
CC(=O)NC(c1cccs1)c1cc(Br)c2cccnc2c1O (stereo not shown) [NCGC00183685-02]										-36	4	-11	4	
CCC(=O)NC(c1cccs1)c1cc(Br)c2cccnc2c1O (stereo not shown) [NCGC00183689-01]	-56	YES	-2.4	25.1	-21	4								Efficacy (%) [1, 5]: -54%; Curve Class [1, 6]: -1.2; IC50 [1, 7]: 28.2 µM; Confirm? (counterscreen) ([2]; counterscreen, YES/NO): YES
NC(=O)c1ccnc2c(O)cccc12.O=C(O)C(F)(F)F [NCGC00183783-01]	-22	YES	-2.4	50.1	-17	4	-40		20					Curve Class [1, 17]: -1.2; Confirm? (counterscreen) ([2]; counterscreen, YES/NO): YES
O=C(O)C(F)(F)F.Oc1cccc2c(-c3nnn[nH]3)ccnc12 [NCGC00183786-01]	-29	YES	-1.4	25.1	-23	4	-27	-1.2	3.5					Confirm? (counterscreen) ([2]; counterscreen, YES/NO): YES
CN1CCN(c2ccc(-c3cc(O)c4ncccc4c3)cc2)CC1.O=C(O)C(F)(F)F [NCGC00183803-01]										-13	4	-12	4	Efficacy (%) [1, 5]: -51%; IC50 [1, 7]: 39.8 µM
O=C(O)C(F)(F)F.O=C(c1ccc(-c2cc(O)c3ncccc3c2)cc1)N1CCNCC1 [NCGC00183806-01]							-40		39.8					Curve Class (confirmatory screen) [1, 9]: 4; Efficacy (%) (confirmatory screen) [1, 10]: -11%; Curve Class [1, 17]: -2.2; Confirm? (counterscreen) [2, 14]: YES; Curve Class (counterscreen) [2, 15]: -1.2; Efficacy (%) (counterscreen) [2, 16]: -59%; IC50 ([2]; Table S3, counterscreen): 35.5 µM
CN(C)CCCNC(=O)c1ccc(-c2cc(O)c3ncccc3c2)cc1 [NCGC00183808-06]														Curve Class (confirmatory screen) [1, 9]: 4; Efficacy (%) (confirmatory screen) [1, 10]: 0%; Confirm? (counterscreen) [2, 14]: YES; Curve Class (counterscreen) [2, 15]: -2.4; Efficacy (%) (counterscreen) [2, 16]: -38%; IC50 ([2]; Table S3, counterscreen): 70.8 µM
CN1CCC(N(Cc2cccs2)c2ccccc2)CC1 [NCGC00183847-01]							-43	-2.4	39.8	0	4	-12	4	
Cc1ccc2nc3sc(C(=O)NCc4ccco4)cc3cc2c1.O=C(O)C(F)(F)F [NCGC00183968-01]	-34	YES	-1.2	15.8	-27	4	-24	-1.4	7.1					Confirm? (counterscreen) ([2]; counterscreen, YES/NO): YES
CC(=O)Nc1sc2c(c1-c1nc3ccccc3o1)CCN(C(C)C)C2.O=C(O)C(F)(F)F [NCGC00184832-01]							-78	-2.2	50.1					Confirm? (confirmatory screen) [1, 18]: YES; Curve Class (confirmatory screen) [1, 9]: -1.2; Efficacy (%) (confirmatory screen) [1, 10]: -47%; IC50 [1, 19]: 39.8 µM; Curve Class (counterscreen) [2, 15]: -2.2; Efficacy (%) (counterscreen) [2, 16]: -55%; IC50 ([2]; Table S3, counterscreen): 50.1 µM
Oc1ccc(-c2nnn[nH]2)c2cccnc12 [NCGC00184885-01]	-40	YES	-3	79.4	-19	-1.4	-31	-1.2	14.1					IC50 ([2]; counterscreen): 35.5 µM
NC(=O)c1ccc(O)c2ncccc12 [NCGC00184888-01]							-24	-1.4	14.1	-19	4	-10	4	
NC(=O)C1CCN(c2ncc(Br)s2)CC1 [NCGC00184919-01]														Confirm? (confirmatory screen) [1, 18]: YES; Curve Class (confirmatory screen) [1, 9]: -2.1; Efficacy (%) (confirmatory screen) [1, 10]: -112%; IC50 [1, 19]: 50.1 µM; Efficacy (%) [1, 5]: -123%; Curve Class [1, 6]: -2.1; IC50 [1, 7]: 39.8 µM; Curve Class (counterscreen) [2, 15]: -2.1; Efficacy (%) (counterscreen) [2, 16]: -127%; IC50 ([2]; Table S3, counterscreen): 39.8 µM
CC(=O)Nc1sc2c(c1-c1nc3ccccc3s1)CNC2.O=C(O)C(F)(F)F [NCGC00185090-03]														Curve Class (confirmatory screen) [1, 9]: 4; Efficacy (%) (confirmatory screen) [1, 10]: -34%; Efficacy (%) [1, 5]: -28%; IC50 [1, 7]: 12.6 µM; Confirm? (counterscreen) [2, 14]: YES; Curve Class (counterscreen) [2, 15]: -2.4; Efficacy (%) (counterscreen) [2, 16]: -43%; IC50 ([2]; Table S3, counterscreen): 50.1 µM
CN1CCN(c2ccc(Nc3nn4c(=O)c5ccccc5nc4s3)cc2)CC1.O=C(O)C(F)(F)F [NCGC00186454-01]	-50	YES	-2.2	50.1	-37	-2.4	-32		12.6					Curve Class [1, 17]: -1.4; IC50 ([2]; counterscreen): 79.4 µM
CC1(C)N=C(Nc2nc3ccccc3o2)NC2=C1C(=O)CCC2.O=C(O)C(F)(F)F [NCGC00187643-01]							-35	-2.2	20	-26	4	-12	4	
CCN1CCN(c2cccc(Nc3nn4c(=O)c5ccccc5nc4s3)c2)CC1.Cl [NCGC00187806-01]	-38	YES	-2.4	44.7	-58	-3	-24	-2.4	35.5					IC50 ([2]; counterscreen): 89.1 µM
COc1ccc2c(=O)n3nc(Nc4cccc(N5CCN(C)CC5)c4)sc3nc2c1.Cl [NCGC00187813-01]							-22	-1.4	17.8	-43	4	-16	4	
CN1CCN(c2cccc(Nc3nn4c(=O)c5ccc(Br)cc5nc4s3)c2)CC1.Cl [NCGC00187814-01]	-63	YES	-2.4	50.1	-54	-2.2								Efficacy (%) [1, 5]: -28%; IC50 [1, 7]: 39.8 µM; IC50 ([2]; counterscreen): 50.1 µM
O=C(O)C(F)(F)F.O=C1CCC2=C1C1(CCCC1)N=C(Nc1nc3ccccc3o1)N2 [NCGC00188036-01]							-24	-1.4	2.8	-27	4	-10	4	
CC1CCC2(C1)N=C(Nc1nc3ccccc3o1)NC1=C2C(=O)CCC1.O=C(O)C(F)(F)F (stereo not shown) [NCGC00188039-01]							-25		31.6	-33	4	-20	4	Curve Class [1, 17]: -2.4
